Test results from publication PMC12136057, “Structural characterization of the ABC transporter DppABCDF in Escherichia coli reveals insights into dipeptide acquisition” (PLOS Biology, 2025).
Blank lines part the entries; values can stand above or below the compound they belong to. Peptide text beside a SMILES is read from it.

Tests used:
DppA = molecular target: T1, DppA (Escherichia coli, UniProt P23847); assay: isothermal titration calorimetry; assay type: binding; details: read-out: affinity
T1 construct: soluble periplasmic protein, His-tagged, Ni-NTA with guanidine wash to remove endogenous peptides; expressed in E. coli
T1 sequence (P23847 29-535): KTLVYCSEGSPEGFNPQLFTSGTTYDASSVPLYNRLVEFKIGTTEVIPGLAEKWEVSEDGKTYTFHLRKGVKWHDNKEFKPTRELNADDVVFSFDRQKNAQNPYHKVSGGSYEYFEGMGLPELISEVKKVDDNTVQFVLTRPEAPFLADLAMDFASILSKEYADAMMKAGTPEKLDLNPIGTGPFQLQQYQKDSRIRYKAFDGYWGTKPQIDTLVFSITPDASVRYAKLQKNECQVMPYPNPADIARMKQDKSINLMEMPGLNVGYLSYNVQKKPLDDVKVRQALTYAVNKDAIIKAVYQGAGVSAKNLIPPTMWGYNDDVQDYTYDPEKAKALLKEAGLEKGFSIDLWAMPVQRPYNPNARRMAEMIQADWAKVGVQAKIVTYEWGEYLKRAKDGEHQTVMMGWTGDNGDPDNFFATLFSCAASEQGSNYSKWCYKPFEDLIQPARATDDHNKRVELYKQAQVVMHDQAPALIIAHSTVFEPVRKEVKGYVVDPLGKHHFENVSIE

[1] = tested on: T2, DppABCDF full transporter; assay: malachite green phosphate ATPase assay, nanodiscs; assay type: biochemical, Escherichia coli; details: DppA added, Mg2+, pH 7.5, 37 °C; with or without Ala-Ala
T2 construct: gene dppD; heteropentamer; structure: DppA C-terminal His-tag and Strep tag, GDN; ATPase: DppBCDF in MSP1E3D1/POPG nanodiscs plus separately purified DppA; Dipeptide transport system permease protein DppB; Dipeptide transport system permease protein DppC
T2 sequence (P0AAG0 whole entry, one chain of several): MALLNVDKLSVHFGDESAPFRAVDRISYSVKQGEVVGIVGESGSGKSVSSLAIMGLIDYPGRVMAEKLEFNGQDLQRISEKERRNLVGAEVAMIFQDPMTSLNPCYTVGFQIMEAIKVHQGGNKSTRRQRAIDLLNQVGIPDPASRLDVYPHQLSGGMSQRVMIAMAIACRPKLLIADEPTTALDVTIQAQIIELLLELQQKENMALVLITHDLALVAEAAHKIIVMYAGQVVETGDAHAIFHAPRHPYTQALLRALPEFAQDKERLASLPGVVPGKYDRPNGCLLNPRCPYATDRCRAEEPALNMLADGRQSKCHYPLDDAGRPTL
T2 sequence (P0AEF8 whole entry, one chain of several, further chain): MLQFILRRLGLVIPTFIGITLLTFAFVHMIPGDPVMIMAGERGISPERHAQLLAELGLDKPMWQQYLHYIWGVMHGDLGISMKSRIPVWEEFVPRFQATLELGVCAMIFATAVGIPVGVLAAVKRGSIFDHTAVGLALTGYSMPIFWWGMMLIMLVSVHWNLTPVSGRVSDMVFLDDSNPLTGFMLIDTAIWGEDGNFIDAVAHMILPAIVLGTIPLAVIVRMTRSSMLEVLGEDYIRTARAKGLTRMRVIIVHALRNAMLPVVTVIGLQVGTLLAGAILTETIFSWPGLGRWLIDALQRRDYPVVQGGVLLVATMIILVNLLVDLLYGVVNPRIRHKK
T2 sequence (P0AEG1 whole entry, one chain of several, further chain): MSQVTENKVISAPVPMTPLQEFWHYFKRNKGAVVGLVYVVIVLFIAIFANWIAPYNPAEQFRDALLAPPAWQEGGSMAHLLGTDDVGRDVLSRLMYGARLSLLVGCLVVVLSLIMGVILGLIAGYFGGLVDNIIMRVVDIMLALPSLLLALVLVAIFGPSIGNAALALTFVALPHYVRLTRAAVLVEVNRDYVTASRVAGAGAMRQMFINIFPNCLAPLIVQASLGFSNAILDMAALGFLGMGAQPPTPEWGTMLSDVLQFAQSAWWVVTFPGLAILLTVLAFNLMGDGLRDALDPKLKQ
T2 sequence (P37313 whole entry, one chain of several, further chain): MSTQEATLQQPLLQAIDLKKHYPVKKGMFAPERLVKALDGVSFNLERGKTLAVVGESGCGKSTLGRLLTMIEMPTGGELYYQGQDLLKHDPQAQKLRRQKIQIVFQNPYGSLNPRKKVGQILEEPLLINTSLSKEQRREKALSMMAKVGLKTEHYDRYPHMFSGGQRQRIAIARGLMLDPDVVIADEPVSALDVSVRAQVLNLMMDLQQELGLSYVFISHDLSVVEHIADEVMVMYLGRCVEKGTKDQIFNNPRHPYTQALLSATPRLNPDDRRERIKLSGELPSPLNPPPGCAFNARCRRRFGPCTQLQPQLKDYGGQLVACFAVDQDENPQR

[2] = molecular target: T3, DppABCDF full transporter (Escherichia coli, UniProt P0AAG0+P37313, P0AAG0:E179Q/P37313:E187Q); assay: cryo-EM structure of the complex ([…] Å); assay type: binding; details: 2 mM ATPγS, 2 mM MgCl2, on ice; outward-facing; two molecules at the DppD-DppF interface
T3 construct: gene dppD; heteropentamer; structure: DppA C-terminal His-tag and Strep tag, GDN; ATPase: DppBCDF in MSP1E3D1/POPG nanodiscs plus separately purified DppA; Dipeptide transport system permease protein DppB; Dipeptide transport system permease protein DppC
T3 sequence (P0AAG0 whole entry E179Q, one chain of several): as the sequence (P0AAG0 whole entry, one chain of several) above, with E179Q counted along it
T3 sequence (P37313 whole entry E187Q, one chain of several): as the sequence (P37313 whole entry, one chain of several, further chain) above, with E187Q counted along it
T3 sequence (P0AEF8 whole entry partner, one chain of several): as the sequence (P0AEF8 whole entry, one chain of several, further chain) above
T3 sequence (P0AEG1 whole entry partner, one chain of several): as the sequence (P0AEG1 whole entry, one chain of several, further chain) above

[3] = molecular target: T4, DppBCDF translocator (cluster site of DppD) (Escherichia coli, UniProt P0AAG0); assay: cryo-EM structure of the complex ([…] Å); assay type: binding; details: cluster in DppD, ligands Cys284, Cys290, Cys297, Cys315; 2 mM DTT
T4 construct: same complex as P2: heterotetramer, C-terminal Strep-tag II, expressed in E. coli, GDN detergent; with Dipeptide transport system permease protein DppB; Dipeptide transport system permease protein DppC
T4 sequence (P0AAG0 whole entry): as the sequence (P0AAG0 whole entry, one chain of several) above
T4 sequence (P0AEF8 whole entry partner): as the sequence (P0AEF8 whole entry, one chain of several, further chain) above
T4 sequence (P0AEG1 whole entry partner): as the sequence (P0AEG1 whole entry, one chain of several, further chain) above
T4 sequence (P37313 whole entry partner): as the sequence (P37313 whole entry, one chain of several, further chain) above

[4] = molecular target: T5, DppBCDF translocator (nucleotide and cluster site of DppF) (Escherichia coli, UniProt P37313); assay: cryo-EM structure of the complex ([…] Å); assay type: binding; details: cluster in DppF, ligands Cys293, Cys299, Cys306, Cys323; 2 mM DTT
T5 construct: heterotetramer, C-terminal Strep-tag II, expressed in E. coli, DDM then GDN detergent; with Dipeptide transport system permease protein DppB; Dipeptide transport system permease protein DppC
T5 sequence (P37313 whole entry): as the sequence (P37313 whole entry, one chain of several, further chain) above
T5 sequence (P0AEF8 whole entry partner): as the sequence (P0AEF8 whole entry, one chain of several, further chain) above
T5 sequence (P0AEG1 whole entry partner): as the sequence (P0AEG1 whole entry, one chain of several, further chain) above
T5 sequence (P0AAG0 whole entry partner): as the sequence (P0AAG0 whole entry, one chain of several) above

Kd (DppA): ~13.9 nM
SMILES: C[C@H](N)C(=O)N[C@@H](C)C(=O)O [AA, Ala-Ala] (H-Ala-Ala-OH)

SMILES: Nc1ncnc2c1ncn2[C@@H]1O[C@H](COP(=O)(O)OP(=O)(O)OP(=O)(O)O)[C@@H](O)[C@H]1O [ATP]
ATPase activity [1]: high ATPase activity is observed when DppA was supplied in the assay

SMILES: Nc1ncnc2c1ncn2[C@@H]1O[C@H](COP(=O)(O)OP(=O)(O)OP(O)(O)=S)[C@@H](O)[C@H]1O [ATPγS]
cryo-EM structure of the complex (2.73 Å) [2]: two ATPγS molecules bound at the interface of the two NBDs

Kd (DppA): ~2200 nM
SMILES: CC(C)C[C@H](NC(=O)CN)C(=O)O [GL, Gly-Leu]

SMILES: [S]12[Fe]3[S]4[Fe]1[S]1[Fe]2[S]3[Fe]41 [[4Fe-4S] cluster]
cryo-EM structure of the complex (3.2 Å) [3]: The [4Fe-4S] cluster in DppD is coordinated by Cys284, Cys290, Cys297 and Cys315 | cryo-EM structure of the complex (3.2 Å) [4]: the [4Fe-4S] cluster in DppF is coordinated by Cys293, Cys299, Cys306 and Cys323
